According to patent US20210220379A1, “PERITONEAL SODIUM-GLUCOSE TRANSPORTER (SGLT) INHIBITORS FOR IMPROVEMENT OF PERITONEAL DIALYSIS” (MOR RESEARCH APPLICATIONS LTD., priority 2017, published 2021):

Experiments:
[1] = system: kidney glucose reabsorption; assay: Glycosuria by urine stick in healthy CD-1 mice after an SGLT inhibitor; type: in vivo; details: phlorizin 20 mg/kg single SC injection
Experimental: (§1) Dapagliflozin (0.1 mg/kg) was given to the mice by oral gavage. Control mice were not given any of the SGLT blockers. Tail blood glucose was tested by glucose test meter immediately before (time 0) and during 2 hours after injection. Glucose levels in the urine were tested by standard urine sticks (Multistix® 10 SG, Siemens Healthcare Diagnostics, Tarrytown, N.Y.).

[2] = system: peritoneal glucose transport; assay: Blood glucose in healthy CD-1 mice after intraperitoneal glucose-containing PD fluid; type: in vivo; details: inhibitor given 15 min before intraperitoneal PD fluid, results not shown
Experimental: as §1

[3] = system: peritoneal glucose transport; assay: Renal failure mice: SC phlorizin followed by intraperitoneal PDF; type: in vivo; details: renal failure CD-1 mice, phlorizin 20 mg/kg SC
Experimental: (§2) Renal failure in mice and rats was induced by bilateral ureteral ligation, based on the procedure described, for example, in Kim et al. (2015) (Am J Physiol Renal Physio., 308(2):F131-139) and references cited therein. Briefly, mice were anesthetized with an intraperitoneal injection of a cocktail containing ketamine (200 mg/kg body weight) and xylazine (16 mg/kg body weight). After exposure of both the left and right kidneys through flank incision, right and left ureters were ligated completely near the kidney pelvis using a 5-0 silk tie.
A standard commercial PD fluid (Dianeal® 1.5% dextrose), diluted 1:4 in saline (comprising 0.375% glucose) was used. Blood glucose levels were measured by glucometer at indicated time points. Area under the curve (AUC) was calculated for all mice and used to compare the two groups. Concentrations of glucose in the peritoneum fluid measured 30 min after administration of PDF are depicted in FIG. 3C.

[4] = system: peritoneal glucose transport; assay: Renal failure mice: SC phlorizin followed by sodium-free PDF; type: in vivo; details: renal failure CD-1 mice; phlorizin 20 mg/kg SC; sodium free PDF 2 ml, 0.375% glucose
Experimental: as §2
Dependency of glucose transport on SGLT inhibition during peritoneal dialysis with PDF not containing sodium was assessed.

[5] = system: peritoneal glucose transport; assay: Uremic mice: phlorizin-containing peritoneal dialysis fluid (PPDF) intraperitoneally; type: in vivo; details: uremic CD-1 mice; 2 ml Dianeal 1.5% dextrose with 0.6 μM phlorizin (PPDF) i.p.; compared with separate applications of phlorizin and PDF; P<0.01 vs phlorizin-free PDF
Experimental: as §2
Blood glucose levels were measured by glucometer at indicated time points, and area under the curve (AUC) was calculated for all mice and used to compare the two groups (FIG. 5C; P<0.01).

[6] = system: glucose absorption from peritoneal fluid; assay: Uremic rat peritoneal dialysis model: PDF with or without phlorizin; type: in vivo, Sprague Dawley (SD) rats; details: uremic SD rats, 120 min dwell
Experimental: as §2
Animal experiments were approved by local Animal Care Committee. Male Sprague Dawley (SD) rats 200-250 gr, we purchased from Envigo RMS (Jerusalem, Israel), allowed to acclimatize for 1 week before the beginning of the experiment. Animals were anesthetized by intramuscular administration of a mixture of ketamine (200 mg/kg body wt) and xylazine (16 mg/kg body wt). Renal failure was induced by bilateral ureteral ligation as described in Materials and Methods. […] After anesthesia temporary catheters were introduced into the peritoneal cavity.
To PDF of both group 100 μl of fluorescein isothiocyanate-dextran was added, average molecular weight 2,000,000 (FITC Dextran −2000, 100 μg/ml, Sigma-Aldrich®, Israel). Dialysate and tail blood samples were obtained during 120 min dwell, every 15 min. Blood glucose level was measured by standard glucometer, dialysate glucose was measured in the chemistry laboratory of the Soroka Medical Center. Dilution of FITC-dextran was detected by florescence of dialysis fluid samples measured with a 96-well fluorimeter (SpectraMax® Paradigm® plate reader, Molecular Devices) at an emission wavelength of 535 nm and an excitation wavelength of 485 nm. Concentrations of unknown samples were calculated from a standard curve by extrapolation in a linear regression model.

**Q.** With `O=C(CCc1ccc(O)cc1)c1c(O)cc(O)cc1O[C@@H]1O[C@H](CO)[C@@H](O)[C@H](O)[C@H]1O` [phlorizin, phloretin-2′-β-D-glucopyranoside] as the compound, how does the Duration of glycosuria [1] read?
**A.** more than 2 hours

**Q.** What about the “Glucose levels in urine (glycosuria score, urine stick)” value ([1]; dapagliflozin 0.1 mg/kg oral gavage) of the same compound?
**A.** significant glycosuria

**Q.** What about the “Blood glucose levels vs control group” value [2] of the same compound?
**A.** significantly lower

**Q.** What about the “Blood glucose levels and AUC vs saline control” value ([3]; 2 ml Dianeal 1.5% dextrose diluted 1:4 (0.375% glucose) i.p., P<0.05) of the same compound?
**A.** mitigated hyperglycemia

**Q.** And the “Glucose levels in peritoneum fluid vs control” value ([3]; 30 minutes from instillation of PDF)?
**A.** significantly elevated

**Q.** And the “Blood glucose levels vs control group” value [4]?
**A.** no differences

**Q.** And the “Reduction of blood glucose levels (AUC)” value [5]?
**A.** significantly more effective

**Q.** And the “Blood glucose levels vs control group” value ([6]; 20 ml PDF (1.5% Dianeal diluted 1:4) with phlorizin 100 μg/ml, P<0.01)?
**A.** Significantly lower

**Q.** And the “FITC-dextran concentration in PDF (dilution) vs control” value ([6]; PDF with phlorizin 100 μg/ml, P<0.05)?
**A.** significant diluted

**Q.** And the “PDF (dialysate) glucose level vs control group” value ([6]; PDF with phlorizin 100 μg/ml, p<0.001)?
**A.** significant declined
